Assay results from patent publication US3976663A, “Certain cyclopropane carboxylic acid esters of 2,3-dihyrobenzofuran-3-ols” (The Procter & Gamble Company, priority 1971, dated 1976).
Where two headings read alike, the source gives them in different places.

Tests used:
[1] = tested on: houseflies; assay: Housefly mortality tests, spray tower (Example IV); format: in vivo; conditions: for % Mortality (24 hr.): 10 second spray; for housefly mortality compared with the chrysanthemates of Table 1: equivalent amount in the test of Example IV
Procedure: (§1) 3-Coumaranyl chrysanthemate, 5-chloro-3-coumaranyl chrysanthemate, 5-methoxy-3-coumaranyl chrysanthemate, and natural pyrethrum, respectively, were dissolved in acetone and dispersed in distilled water with Triton X-100 emulsifier. The samples were applied for a 10 second period to houseflies retained in a 2 inch × 5 inch diameter screened cage. The spray is applied from the Water's vertical spray tower operating at 10 p.s.i. and discharging about 30 ml. of material per minute through an atomizer. The spray descends through an 8 inch stainless steel cylinder to test insects below the atomizer. The insects were retained in the sprayed cages for mortality observations.

[2] = tested on: Adult stable flies; assay: Insect mortality test, spray tower (Example VI); format: in vivo; conditions: 0.05 + 0.2 synergist (piperonyl butoxide) % W/V, 1 day
Procedure: as §1
(§2) All test species except the webbing clothes moth larvae were sprayed in the Water's vertical spray tower as described in Example IV. For the fabric tests, a two inch square area of wool fabric was dipped in the test formulations.

[3] = tested on: Southern Armyworm; assay: Insect mortality test, spray tower (Example VI); format: in vivo; conditions: 0.05 + 0.2 synergist (piperonyl butoxide) % W/V, 2 days
Procedure: as §1, §2

[4] = tested on: Black carpet beetle larvae; assay: Insect mortality test, spray tower (Example VI); format: in vivo; conditions: 0.05 + 0.2 synergist (piperonyl butoxide) % W/V, 7 days
Procedure: as §1, §2

[5] = tested on: Adult rice weevils; assay: Insect mortality test, spray tower (Example VI); format: in vivo; conditions: 0.05 + 0.2 synergist (piperonyl butoxide) % W/V, 3 days
Procedure: as §1, §2

[6] = tested on: Mite; assay: Insect mortality test, spray tower (Example VI); format: in vivo; conditions: 0.05 + 0.2 synergist (piperonyl butoxide) % W/V, 5 days
Procedure: as §1, §2

[7] = tested on: Mexican Bean Beetle; assay: Insect mortality test, spray tower (Example VI); format: in vivo; conditions: 0.005 + 0.02 synergist (piperonyl butoxide) % W/V, 2 days
Procedure: as §1, §2

[8] = tested on: Adult mosquito; assay: Insect mortality test, spray tower (Example VI); format: in vivo; conditions: 0.05 + 0.2 synergist (piperonyl butoxide) % W/V, 1 day
Procedure: as §1, §2

[9] = tested on: German Cockroach; assay: Insect mortality test, spray tower (Example VI); format: in vivo; conditions: 0.05 + 0.2 synergist (piperonyl butoxide) % W/V, 2 days
Procedure: as §1, §2

[10] = tested on: Pea Aphid; assay: Insect mortality test, spray tower (Example VI); format: in vivo; conditions: 0.005 + 0.02 synergist (piperonyl butoxide) % W/V, 2 days
Procedure: as §1, §2

[11] = tested on: Adult saw toothed grain beetles; assay: Insect mortality test, spray tower (Example VI); format: in vivo; conditions: 0.05 + 0.2 synergist (piperonyl butoxide) % W/V, 3 days
Procedure: as §1, §2

[12] = tested on: houseflies; assay: Residual activity against houseflies on treated panels (Example V); format: in vivo; conditions: 100 milligrams per square foot, one hour exposure
Excerpt: (§3) 3-Coumaranyl chrysanthemate and natural pyrethrum, respectively, were formulated in deodorized kerosene to give a deposit rate of 100 milligrams per square foot of area for residual evaluation against houseflies and 200 and 400 milligrams per square foot of area for residual evaluation against German cockroaches. The formulations were uniformly applied at the rate of 8 milliliters/sq.ft. on unpainted plywood and 3.5 milliliters/sq.ft. on vinyl asbestos with a camel hair brush. Adult insects were exposed to each treated panel for one hour (houseflies) or two hours (cockroaches), transferred to clean cages, and held for mortality counts. The same treated panels were used for re-exposures after the aging period indicated.

[13] = tested on: Webbing clothes moth larvae; assay: Insect mortality test, wool fabric dipped in test formulation (Example VI); format: in vivo; conditions: 0.05 + 0.2 synergist (piperonyl butoxide) % W/V, 7 days
Excerpt: as §2

[14] = tested on: 11 other insects; assay: Insect mortality tests, Example VI as a whole; format: in vivo
Procedure: as §1, §2

[15] = Mammalian toxicity, LD50 (rat); conditions: in vivo
[16] = tested on: German cockroaches; assay: Residual activity against cockroaches on treated panels (Example V); format: in vivo; conditions: Blattella germanica, 48 h
Excerpt: as §3

[17] = 0.0025 + 0.025 PB (piperonyl butoxide) % W/V
[18] = Musca domestica, topical, 24 h, read-out: % Mortality (24 hr.)
[19] = 0.005 + 0.05 PB (piperonyl butoxide) % W/V

With CC(C)=CC1C(C(=O)OC2COc3ccccc32)C1(C)C (racemic) [Example I, (±) cis,trans-3-coumaranyl chrysanthemate] the “% Mortality (24 hr.)” value ([1]; 0.00125 + 0.0125 PB (piperonyl butoxide) % W/V) was 28%, the “% Mortality (24 hr.)” value [1, 17] was 93% and the mortality at 0.00125 % strength [1, 18] was 5%. For the same molecule, the mortality at 0.0025 % strength [1, 18] was 6%, the “% Mortality (days)” value [2] was 100% and the “% Mortality (days)” value [3] was 70%. For the same molecule, the “% Mortality (days)” value [4] was 40%, the “% Mortality (days)” value [5] was 100% and the “% Mortality (days)” value [6] was 69%. The “% Mortality (days)” value [7] was 80%, the “% Mortality (days)” value [8] was 100% and the “% Mortality (days)” value [9] was 30%. The “% Mortality (days)” value [10] was 65%, the “% Mortality (days)” value [11] was 100% and the “% Mortality (24 hr.)” value ([12]; Plywood, age of residue 1 day) was 100%. The “% Mortality (24 hr.)” value ([12]; Plywood, age of residue 3 days) was 98%, the “% Mortality (24 hr.)” value ([12]; Plywood, age of residue 7 days) was 83% and the “% Mortality (24 hr.)” value ([12]; Vinyl, age of residue 1 day) was 100%. For the same molecule, the “% Mortality (24 hr.)” value ([12]; Vinyl, age of residue 3 days) was 100%, the “% Mortality (24 hr.)” value ([12]; Vinyl, age of residue 7 days) was 59% and the “% Mortality (days)” value [13] was 100%. For the same molecule, the “effectiveness against 11 other insects” value [14] was “effective”, the LD50 [15] was over 7570 mg/kg and the mortality at 200 mg/sq ft ([16]; read-out: % Mortality (48 hrs.), Plywood, 200 milligrams per sq. ft., age of residue 1 day, two hours exposure) was 85%. The mortality at 200 mg/sq ft ([16]; read-out: % Mortality (48 hrs.), Plywood, 200 milligrams per sq. ft., age of residue 3 days, two hours exposure) was 83%, the mortality at 200 mg/sq ft ([16]; read-out: % Mortality (48 hrs.), Plywood, 200 milligrams per sq. ft., age of residue 7 days, two hours exposure) was 93% and the mortality at 200 mg/sq ft ([16]; read-out: % Mortality (48 hrs.), Plywood, 200 milligrams per sq. ft., age of residue 14 days, two hours exposure) was 85%. It also gave a mortality at 400 mg/sq ft ([16]; read-out: % Mortality (48 hrs.), Plywood, 400 milligrams per sq. ft., age of residue 1 day, two hours exposure) of 83%, a mortality at 400 mg/sq ft ([16]; read-out: % Mortality (48 hrs.), Plywood, 400 milligrams per sq. ft., age of residue 3 days, two hours exposure) of 83% and a mortality at 400 mg/sq ft ([16]; read-out: % Mortality (48 hrs.), Plywood, 400 milligrams per sq. ft., age of residue 7 days, two hours exposure) of 90%. It also gave a mortality at 400 mg/sq ft ([16]; read-out: % Mortality (48 hrs.), Plywood, 400 milligrams per sq. ft., age of residue 14 days, two hours exposure) of 73%, a mortality at 200 mg/sq ft ([16]; read-out: % Mortality (48 hrs.), Vinyl, 200 milligrams per sq. ft., age of residue 1 day, two hours exposure) of 100% and a mortality at 200 mg/sq ft ([16]; read-out: % Mortality (48 hrs.), Vinyl, 200 milligrams per sq. ft., age of residue 3 days, two hours exposure) of 95%. It also gave a mortality at 200 mg/sq ft ([16]; read-out: % Mortality (48 hrs.), Vinyl, 200 milligrams per sq. ft., age of residue 7 days, two hours exposure) of 70%, a mortality at 200 mg/sq ft ([16]; read-out: % Mortality (48 hrs.), Vinyl, 200 milligrams per sq. ft., age of residue 14 days, two hours exposure) of 20% and a mortality at 400 mg/sq ft ([16]; read-out: % Mortality (48 hrs.), Vinyl, 400 milligrams per sq. ft., age of residue 1 day, two hours exposure) of 100%. For the same molecule, the mortality at 400 mg/sq ft ([16]; read-out: % Mortality (48 hrs.), Vinyl, 400 milligrams per sq. ft., age of residue 3 days, two hours exposure) was 100%, the mortality at 400 mg/sq ft ([16]; read-out: % Mortality (48 hrs.), Vinyl, 400 milligrams per sq. ft., age of residue 7 days, two hours exposure) was 100% and the mortality at 400 mg/sq ft ([16]; read-out: % Mortality (48 hrs.), Vinyl, 400 milligrams per sq. ft., age of residue 14 days, two hours exposure) was 83%.
In the case of CC(C)=CC1C(C(=O)OC2COc3ccc(Cl)cc32)C1(C)C (racemic) [Example II, (±) cis,trans-5-chloro-3-coumaranyl chrysanthemate], the “% Mortality (24 hr.)” value [1, 17] was 56%, the “% Mortality (24 hr.)” value [1, 19] was 99% and the mortality at 0.005 % strength [1, 18] was 5%.
In the case of COc1ccc2c(c1)C(OC(=O)C1C(C=C(C)C)C1(C)C)CO2 (racemic) [Example III, (±) cis, trans-5-methoxy-3-coumaranyl chrysanthemate], the “% Mortality (24 hr.)” value [1, 19] was 57%, the “% Mortality (24 hr.)” value ([1]; 0.01 + 0.1 PB (piperonyl butoxide) % W/V) was 100% and the mortality at 0.01 % strength [1, 18] was 0%.
In the case of CC1(C)C(C(=O)OC2COc3ccccc32)C1(C)C (stereo not drawn) [3-coumaranyl 2,2,3,3-tetramethylcyclopropanecarboxylate], the “housefly mortality compared with the chrysanthemates of Table 1” value [1] was “equivalent results”.
With CC1(C)C(C=C2CCCC2)C1C(=O)OC1COc2ccccc21 (stereo not drawn) [3-coumaranyl 3-(2,2-tetramethyleneethenyl)-2-dimethylcyclopropanecarboxylate] the “housefly mortality compared with the chrysanthemates of Table 1” value [1] was “equivalent results”.
For CC1(C)C(C(=O)OC2COc3ccc(Cl)cc32)C1(C)C (stereo not drawn) [5-chloro-3-coumaranyl 2,2,3,3-tetramethylcyclopropanecarboxylate], the “housefly mortality compared with the chrysanthemates of Table 1” value [1] was “equivalent results”.
With CC1(C)C(C=C2CCCC2)C1C(=O)OC1COc2ccc(Cl)cc21 (stereo not drawn) [5-chloro-3-coumaranyl 3-(2,2-tetramethyleneethenyl)-2,2-dimethylcyclopropanecarboxylate] the “housefly mortality compared with the chrysanthemates of Table 1” value [1] was “equivalent results”.
With COc1ccc2c(c1)C(OC(=O)C1C(C)(C)C1(C)C)CO2 (stereo not drawn) [5-methoxy-3-coumaranyl 2,2,3,3-tetramethylcyclopropanecarboxylate] the “housefly mortality compared with the chrysanthemates of Table 1” value [1] was “equivalent results”.
In the case of COc1ccc2c(c1)C(OC(=O)C1C(C=C3CCCC3)C1(C)C)CO2 (stereo not drawn) [5-methoxy-3-coumaranyl 3-(2,2-tetramethyleneethenyl)-2,2-dimethylcyclopropanecarboxylate], the “housefly mortality compared with the chrysanthemates of Table 1” value [1] was “equivalent results”.
For CC1(C)C(C(=O)OC2COc3ccc([N+](=O)[O-])cc32)C1(C)C (stereo not drawn) [5-nitro-3-coumaranyl 2,2,3,3-tetramethylcyclopropanecarboxylate], the “housefly mortality compared with the chrysanthemates of Table 1” value [1] was “equivalent results”.
In the case of CC1(C)C(C=C2CCCC2)C1C(=O)OC1COc2ccc([N+](=O)[O-])cc21 (stereo not drawn) [5-nitro-3-coumaranyl 3-(2,2-tetramethyleneethenyl)-2-dimethylcyclopropanecarboxylate], the “housefly mortality compared with the chrysanthemates of Table 1” value [1] was “equivalent results”.
With CC(C)=CC1C(C(=O)OC2COc3ccc([N+](=O)[O-])cc32)C1(C)C (stereo not drawn) [5-nitro-3-coumaranyl chrysanthemate] the “housefly mortality compared with the chrysanthemates of Table 1” value [1] was “equivalent results”.
